From patent US10835500B2, “Medicament for accelerated wound healing” (Symrise AG, priority 2014, dated 2020)

How the values were obtained:
[1] = test system: ERK1/2 MAPK; assay: Western Blot, phosphorylation of ERK1/2 MAPK in HaCaT cells; format: cell-based, human; details: inhibitor 10 μM, Sandalore 500 μM
Method: (§1) In the following, an investigation was to be conducted to determine whether a MAPK signalling pathway is activated by Sandalore® stimulation in skin cells, and if so, which pathway is involved. For detection, HaCaT cells were stimulated for 0-30 min with 500 μM of Sandalore®, and the proteins were then isolated and used in Western Blot assays.
In order to reveal a possible interaction of the two MAPK signalling pathways, ERK1/2 phosphorylation in the presence of the p38 MAPK inhibitor SB203580 and p38 MAPK phosphorylation in the presence of the ERK1/2 MAPK inhibitor U0126 were investigated. Phosphorylation was increased for both kinases in the presence of the respective inhibitors compared to the cells stimulated with Sandalore® only. This effect was significant for p38 MAPK (FIG. 17c).
(§2) Effect of Sandalore® stimulation on phosphorylation of MAP kinases in skin cells. A) Western Blot for investigating the phosphorylation of the MAP kinases in HaCaT cells stimulated for 0, 5, 15 and 30 min with Sandalore®(500 μM). In order to confirm uniform protein volume, ▪-tubulin was used as a control. ERK1/2: 42/44 kDa; p38: 43 kDa; JNK/SAPK: 46/54 kDA; ▪-tubulin: 52 kDa. B) Quantitative evaluation of p38 and ERK1/2 phosphorylation of HaCaT cells stimulated for 30 min with Sandalore®(500 μM) or additionally with the p38 inhibitor 5B203580 (10 μM) or ERK1/2 inhibitor U0126 (10 μM). For evaluation, the ratio of the phosphorylated (p) and unphosphorylated proteins was established and compared to that of untreated cells. Mean values including standard error. Mann-Whitney U test. *: p<0.05; ***: p<0.001. In C), the inhibitors of the respective other MAP kinase were used, and phosphorylation was compared to the cells stimulated with Sandalore® (500 μM) alone. Mean values including standard error. Mann-Whitney U test. *: p<0.05. The Western Blot analyses were carried out with three different protein isolations.

[2] = test system: p38 MAPK; assay: Western Blot, phosphorylation of p38 MAPK in HaCaT cells; format: cell-based, human; details: inhibitor 10 μM, Sandalore 500 μM
Method: as §1
In order to reveal a possible interaction of the two MAPK signalling pathways, ERK1/2 phosphorylation in the presence of the p38 MAPK inhibitor SB203580 and p38 MAPK phosphorylation in the presence of the ERK1/2 MAPK inhibitor U0126 were investigated.
as §2, with “A)” for “Effect of Sandalore® stimulation on phosphorylation of MAP kinases in skin cells. A)”, “In order to confirm uniform protein volume, ▪-tubulin was used as a control.” left out

[3] = test system: HaCaT cells; assay: In vitro wound scratch assay, HaCaT cells; format: cell-based, human; details: HaCaT; for Sandalore-increased wound healing on coincubation: 48 hours, Sandalore 500 μM + antagonist 500 μM or inhibitor 10 μM; for effect of the substance alone on wound healing: antagonist 500 μM or inhibitor 10 μM alone
Excerpt: The MAP kinases p38 and ERK1/2 are often associated with increased proliferation and migration in epidermal wound healing. For this reason, in a further physiological experiment, the effect of Sandalore® on “wound healing” of a confluent cell layer of HaCaT cells or primary keratinocytes was investigated. For this purpose, the wound scratch assay was used, which is an established in vitro method for initial investigations of wound healing processes in keratinocytes.
In order to investigate the role of the OR2AT4 receptor in this effect, a test was conducted to determine whether the two antagonists Oxyphenylon and Phenirat could again reduce the “wound healing” increased by Sandalore®. For this purpose, Sandalore® was mixed with one of the antagonists each in the same ratio, and the effect on “wound healing” of the HaCaT cells was again observed for 48 hours. […] The two antagonists alone had no effect on the “wound healing” (FIG. 18d). The role of the MAP kinases p38 and ERK1/2 was investigated by means of specific inhibitors of the kinases. For p38 MAPK, the […] SB203580 was used, and for ERK1/2 MAPK, the […] U0126 was used. […] The two inhibitors alone had no effect on the wound healing (FIG. 18d).
Effect of Sandalore® stimulation on human keratinocytes in an in vitro “wound healing” assay. Investigation of the “wound healing rate” of A) primary keratinocytes and B) HaCaT cells by means of a wound scratch assay in the presence of Sandalore® (500 μM) or 0.1% DMSO as a control. Left: Transmitted light images of the “wound” observed at various times. The growth margin of the cells was surrounded in black. Scale: 200 μm. Right: Quantitative evaluation of the wound scratch assay. The areas of the wounds were measured and compared to the initial wound (0 h). Mean values including standard error. Mann-Whitney U test; n=4 experiments. *: p<0.05; ***: p<0.001. C) Wound scratch assay in the presence of Sandalore® (500 μM) and one of the antagonists Oxyphenylon (500 μM) or Phenirat (500 μM) respectively, the p38 MAPK inhibitor 5B203580 (10 μM), or the ERK1/2 MAPK inhibitor U0126 (10 μM). The measured wound areas of the treated cells (after 48-hour stimulation) were compared to the control (0.1% DMSO). Mean values including standard error. Kruskal-Wallis test with multiple comparison; n=3 experiments. *: p<0.05. D) Controls for the wound scratch assay with Oxyphenylon (500 μM), Phenirat (500 μM), 5B203580 (10 μM), or U0126 (10 μM) carried out under C). The measured wound areas of the treated cells were compared to the control (0.1% DMSO). Mean value included.

[4] = molecular target: T1, recombinantly expressed OR2AT4 (Homo sapiens, UniProt A6NND4); assay: Calcium imaging of transiently OR2AT4-transfected Hana3A cells; format: cell-based; details: 1 mM odorant, 20 s stimulation, OR2AT4-transfected Hana3A cells
T1 construct: expressed in transfected cells; host or cells: Hana3A cells, transient transfection with pcDNA3-OR2AT4 by the calcium phosphate method
T1 sequence (A6NND4 1-320): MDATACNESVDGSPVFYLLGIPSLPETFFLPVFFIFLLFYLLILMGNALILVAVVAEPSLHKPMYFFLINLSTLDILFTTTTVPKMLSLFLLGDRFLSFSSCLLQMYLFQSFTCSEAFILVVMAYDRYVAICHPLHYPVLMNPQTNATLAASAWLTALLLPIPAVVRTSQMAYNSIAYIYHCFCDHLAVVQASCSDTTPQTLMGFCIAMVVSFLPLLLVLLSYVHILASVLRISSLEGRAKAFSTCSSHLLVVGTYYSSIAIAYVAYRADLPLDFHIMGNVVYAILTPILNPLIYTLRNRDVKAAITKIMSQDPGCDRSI
Method: Hana3A cells expressing stable endogenous olfactory transduction factors, which specifically target the incorporation of ORs into the cell membrane and thus improve activation capacity, were used as a heterologous expression system. Moreover, the 20 first N-terminal amino acids of rhodopsins (Rho-tag) were added before the N-terminus of the coding sequence of the OR, also in order to support heterologous expression.
A method established at the Department of Cell Physiology of Ruhr University Bochum for deorphanization studies is calcium imaging, in which activation of an OR by an odorant is visualized by a change in the intracellular calcium concentration of transfected cells using a fluorescent dye [cf. Wetzel et al. in: J. Neurosci. 19, pp. 7426-7433 (1999); Spehr et al. in: Science 299, pp. 2054-2058 (2003); Neuhaus et al. in: J. Biol. Chem. 284, pp. 16218-16225 (2009)]. In this method, the Hana3A cells are briefly (20 s) stimulated with an odorant and selected for odorant screenings of high concentrations (up to 1 mM) in order to confirm activation of ORs weakly expressed in Hana3A cells.
The activation of OR2AT4 by Sandalore® was first investigated by the calcium imaging method.
Odorants can not only activate a receptor, but can also act as antagonists to an OR.
(§3) Determination of receptive field of recombinantly expressed OR2AT4. […] As a control, untransfected Hana3A cells were simulated with Sandalore®. 100 μM of ATP was used at the end of each measurement as a positive control stimulus. […] The mean response rate including standard error of the cells is shown relative to the Ringer control. […] Isobornyl.: isobornyl cyclohexanol; S. öl: sandalwood oil. Kruskal-Wallis test with multiple comparison. *: p<0.05. […] Significance was determined between Hana3A cells transfected with OR2AT4-pcDNA3 and pcDNA3 without an insert. The dots show mean normalized luciferase-activity including standard error. Mann-Whitney U test; n=3 experiments. *: p<0.05; **: p<0.01; ***: p<0.001.
Antagonists of recombinantly expressed OR2AT4. […] 100 μM of ATP was used at the end of each measurement as a positive control stimulus. […] The mean response rate including standard error of the cells is shown relative to the Ringer control. Number of measurements: Ringer (23), Sandalore® (22), Sandalore®+dimetol (11), dimetol (11), Phenirat (14), Sandalore®+Phenirat (22), Oxyphenylon (12), and Sandalore®+Oxyphenylon (20). S: Sandalore®. Kruskal-Wallis test with multiple comparison. *: p<0.05.

[5] = molecular target: T1, recombinantly expressed OR2AT4; assay: CRE dual luciferase assay in OR2AT4-transfected Hana3A cells; format: cell-based; details: for activation of OR2AT4 in the luciferase assay: up to the highest useable concentrations 10-25 μM
Excerpt: In order to verify calcium imaging results and investigate dose-dependent activation of OR2AT4, a further method of deorphanization based on a dual luciferase system was used. In this method, in addition to the OR, two luciferases were introduced into the Hana3A cells. When the expressed OR is activated by an odorant and cAMP is formed in the further course of the signal cascade, this initiates expression of firefly luciferase via CRE (cAMP response elements). The second luciferase, Renilla luciferase, serves as a control for transfection and vitality of the cells. By calculating the two luciferase values, the activation capacity of an OR by an odorant can be determined. In the CRE luciferase assay, the odorant remains on the cells for hours in order to ensure that the luciferase is expressed. Because of the longer incubation time of the odorants and the possibility of activating more receptors in a 96-well format, this method is more sensitive than calcium imaging and is well-suited for establishing dose-response relationships.
For Brahmanol, however, a higher concentration (≥75 μM) was required than for Sandalore® (≥25 μM) in order to produce a significant effect at the receptor (FIG. 3c).
as §3

| Molecule | Sandalore-increased wound healing on coincubation [3] | effect of the substance alone on wound healing [3] | response rate of the Hana3A cells relative to the Ringer control [4] | activation of OR2AT4 in the luciferase assay [5] | other results |
| --- | --- | --- | --- | --- | --- |
| C[S+]([O-])c1ccc(-c2nc(-c3ccncc3)c(-c3ccc(F)cc3)[nH]2)cc1 (centres unmarked) [SB203580] | again reduced to the normal level | no effect | – | – | ERK1/2 phosphorylation in the presence of the p38 MAPK inhibitor compared to Sandalore only [1]: increased; Sandalore-induced p38 MAPK phosphorylation with p38 inhibitor ([2]; 30 min): significantly reduced |
| N#CC(=C(/N)Sc1ccccc1N)/C(C#N)=C(\N)Sc1ccccc1N [U0126] | again reduced to the normal level | no effect | – | – | Sandalore-induced ERK1/2 MAPK phosphorylation with ERK1/2 inhibitor ([1]; 30 min): significantly reduced; increase of p38 MAPK phosphorylation in the presence of the ERK1/2 MAPK inhibitor compared to Sandalore only [2]: significant |
| CC1=CCC(C=CC(C)(C)C(C)O)C1(C)C (centres unmarked) [Polysantol] | – | – | only Brahmanol showed an increased response rate | no increased activation of OR2AT4 | – |
| isobornyl cyclohexanol | – | – | only Brahmanol showed an increased response rate | no increased activation of OR2AT4 | – |
| CC/C(=C\CC1CC=C(C)C1(C)C)CO (centres unmarked) [Sandranol] | – | – | only Brahmanol showed an increased response rate | – | reaction in the CRE luciferase assay ([5]; at the investigated concentration (≥50 μM)): no reaction |
